Experimental data published in patent US20230416262A1, “TRPML MODULATORS” (Casma Therapeutics, Inc., priority 2020, published 2023).

tested on: THP-1 cells; experiment: Lamp1 lysosomal exocytosis assay; format: cell-based; conditions: Homo sapiens, 55 min, 55 min incubation, top dose 20 μM
Description: For the Lamp1 lysosomal exocytosis assay, a human monocytic suspension cell line (THP-1) was used. Cells in culture should be used between a density of […] and 1.2e6/mL on the day of the assay. For each 96-well assay plate to be used, pellet 11e6 THP-1 cells at 330×g for 5 min in a 50 mL conical tube, aspirate media and resuspend in 22 mLs of RPMI 1640/10% FBS media for a final cell concentration of 5e5/mL. Prior to addition of cells to the assay plate, perform a 7 pt dilution curve using a top dose of compound at 2 mM and use a 3-fold serial dilution, the 8th point is DMSO only. Final top dose of compound in the assay was 20 μM. 2 μL of each serial dilution was transferred to a new 96-well v-bottom assay plate. 198 μL of cells (1e5 total cells/well) was prepared as above in each well of the assay plate and incubated at 37° C./5% CO2/95% RH for 55 min. After the 55 min incubation, cells were pelleted for 5 min at 4 C at 400×g in a tabletop centrifuge. The media was separated from the cell pellets in the plate. The pellets were washed using 200 μL ice cold buffer (PBS Ca^++/Mg^++ containing 2% final BSA and 80 μM final Dynasore). Cells were pelleted again at 400×g-5 min in a 4° C. tabletop centrifuge. Buffer was separated from cells. Each well was suspended in 75 uL Lamp1-PE antibody buffer (PBS Ca^++/Mg^++ containing 2% final BSA with 80 uM final Dynasore and 1:800 final dilution of Lamp 1-PE labeled antibody). After a 45 min antibody incubation on ice, 25 μL of sytox green was added (I drop/mL buffer), and each well was mixed and incubated for an additional 15 min on ice. After the 15 min sytox green incubation, 100 μL of ice-cold buffer (PBS Ca^++/Mg^++ containing 2% final BSA and 80 uM final Dynasore) was added and cells were pelleted for 5 min at 400×g. The buffer was removed and each sample was resuspended in 100 uL of ice-cold buffer (PBS Ca^++/Mg^++ containing 2% final BSA and 80 μM final Dynasore). FACs gating strategy: FACS analyze for sytox green (A488) and Lamp1-PE (DsRed). First gate against FSC-A/SSC-A to find non-fragmented or ‘live’ THP-1 cells. Next gate against FITC-A/FSC-A to omit sytox green positive cells. Then gate for FSC-A/FSC-H to remove any doublet cells. The last gate was a histogram for PE. The statistics for ‘count’ and ‘geometric mean fluorescence intensity’ (gWFI) for PE were repoted on the last gate.
Compounds having an activity designated as “++++” provided an exocytosis readout of ≤0.50 μM; compounds having an activity designated as “+++” provided an exocytosis readout of 0.51-1.00 μM; compounds having an activity designated as “++” provided an exocytosis readout of 1.01-5.00 μM; and compounds having an activity designated as “+” provided an exocytosis readout of ≥5.01 μM

Row | EC50 [µM] | Compound
1 | ≥ 5.01 | O=C(C1CCC2(CC1)CN(S(=O)(=O)c1ccc(C(F)F)cc1)c1ccccc12)N1CCC2(CCOC2)C1 (centres unmarked) [Compound I-240, (1′-((4-(difluoromethyl)phenyl)sulfonyl)spiro[cyclohexane-1,3′-indolin]-4-y1)(2-oxa-7-azaspiro[4.4]nonan-7-yl)methanone]
2 | ≥ 5.01 | O=C(COC1CCOC1)N1CCC2(CC1)CN(S(=O)(=O)c1ccc(C(F)F)cc1)c1ccccc12 (centres unmarked) [Compound I-254, 1-(1-((4-(difluoromethyl)phenyl)sulfonyl)spiro[indoline-3,4′-piperidin]-1′-yl)-2-((tetrahydrofuran-3-yl)oxy)ethan-1-one]
3 | 0.51 to 1 | CCn1ccc(COC(=O)N2CCC3(CC2)CN(S(=O)(=O)c2ccc(C(F)F)cc2)c2ccccc23)n1 [Compound I-177, (1-ethyl-1H-pyrazol-3-yl)methyl 1-((4-(difluoromethyl)phenyl)sulfonyl)spiro[indoline-3,4′-piperidine]-1′-carboxylate]
4 | ≥ 5.01 | O=C(NCc1ccncc1)C1CCC2(CC1)CN(S(=O)(=O)c1ccc(C(F)F)cc1)c1ccccc12 (centres unmarked) [Compound I-233, 1′-((4-(difluoromethyl)phenyl)sulfonyl)-N-(pyridin-4-ylmethyl)spiro[cyclohexane-1,3′-indoline]-4-carboxamide]
5 | ≥ 5.01 | O=C(CC1CCOC1)N1CCC2(CC1)CN(S(=O)(=O)c1ccc(C(F)F)cc1)c1ccccc12 (centres unmarked) [Compound I-255, 1-(1-((4-(difluoromethyl)phenyl)sulfonyl)spiro[indoline-3,4′-piperidin]-1′-yl)-2-(tetrahydrofuran-3-yl)ethan-1-one]
6 | 1.01 to 5 | O=C(OCc1ccccn1)N1CCC2(CC1)CN(S(=O)(=O)c1ccc(C(F)F)cc1)c1ccccc12 [Compound I-141, pyridin-2-ylmethyl 1-((4-(difluoromethyl)phenyl)sulfonyl)spiro[indoline-3,4′-piperidine]-1′-carboxylate]
7 | ≥ 5.01 | Cn1cc(NC(=O)N2CCC3(CC2)CN(S(=O)(=O)c2ccc(C(F)F)cc2)c2ccccc23)cn1 [Compound I-200, 1-((4-(difluoromethyl)phenyl)sulfonyl)-N-(1-methyl-1H-pyrazol-4-yl)spiro[indoline-3,4′-piperidine]-1′-carboxamide]
8 | ≥ 5.01 | O=C(NCC(F)F)N1CCC2(CC1)CN(S(=O)(=O)c1ccc(C(F)F)cc1)c1ccccc12 [Compound I-194, N-(2,2-difluoroethyl)-1-((4-(difluoromethyl)phenyl)sulfonyl)spiro[indoline-3,4′-piperidine]-1′-carboxamide]
9 | ≥ 5.01 | CCn1cc(CNC(=O)C2CCC3(CC2)CN(S(=O)(=O)c2ccc(C(F)F)cc2)c2ccccc23)cn1 (centres unmarked) [Compound I-241, 1′-((4-(difluoromethyl)phenyl)sulfonyl)-N-((1-ethyl-1H-pyrazol-4-yl)methyl)spiro[cyclohexane-1,3′-indoline]-4-carboxamide]
10 | ≥ 5.01 | Cn1cnc(COC(=O)N2CCC3(CC2)CN(S(=O)(=O)c2ccc(C(F)F)cc2)c2ccccc23)c1 [Compound I-172, (1-methyl-1H-imidazol-4-yl)methyl 1-((4-(difluoromethyl)phenyl)sulfonyl)spiro[indoline-3,4′-piperidine]-1′-carboxylate]
11 | ≥ 5.01 | Cn1cccc1NC(=O)N1CCC2(CC1)CN(S(=O)(=O)c1ccc(C(F)F)cc1)c1ccccc12 [Compound I-199, 1-((4-(difluoromethyl)phenyl)sulfonyl)-N-(1-methyl-1H-pyrrol-2-yl)spiro[indoline-3,4′-piperidine]-1′-carboxamide]
12 | ≥ 5.01 | O=C(Cc1ccccc1)N1CCC2(CC1)CN(S(=O)(=O)c1ccc(C(F)F)cc1)c1ccccc12 [Compound I-175, 1-(1-((4-(difluoromethyl)phenyl)sulfonyl)spiro[indoline-3,4′-piperidin]-1′-yl)-2-phenylethan-1-one]
13 | ≥ 5.01 | O=C(Nc1ccccc1)N1CCC2(CC1)CN(S(=O)(=O)c1ccc(C(F)F)cc1)c1ccccc12 [Compound I-197, 1-((4-(difluoromethyl)phenyl)sulfonyl)-N-phenylspiro[indoline-3,4′-piperidine]-1′-carboxamide]
14 | 1.01 to 5 | O=C(CCC(F)(F)F)N1CCC2(CC1)CN(S(=O)(=O)c1ccc(C(F)F)cc1)c1ccccc12 [Compound I-251, 1-(1-((4-(difluoromethyl)phenyl)sulfonyl)spiro[indoline-3,4′-piperidin]-1′-y1)-4,4,4-trifluorobutan-1-one]
15 | ≥ 5.01 | O=C(NCc1ccccc1)N1CCC2(CC1)CN(S(=O)(=O)c1ccc(C(F)F)cc1)c1ccccc12 [Compound I-179, N-benzyl-1-((4-(difluoromethyl)phenyl)sulfonyl)spiro[indoline-3,4′-piperidine]-1′-carboxamide]
16 | ≥ 5.01 | O=C(NCC1CC1)N1CCC2(CC1)CN(S(=O)(=O)c1ccc(C(F)F)cc1)c1ccccc12 [Compound I-193, N-(cyclopropylmethyl)-1-((4-(difluoromethyl)phenyl)sulfonyl)spiro[indoline-3,4′-piperidine]-1′-carboxamide]
17 | ≥ 5.01 | O=C(N1CCCC1)N1CCC2(CC1)CN(S(=O)(=O)c1ccc(C(F)F)cc1)c1ccccc12 [Compound I-136, (1-((4-(difluoromethyl)phenyl)sulfonyl)spiro[indoline-3,4′-piperidin]-1′-yl)(pyrrolidin-1-yl)methanone]
18 | ≥ 5.01 | O=C(NCC1CCCO1)N1CCC2(CC1)CN(S(=O)(=O)c1ccc(C(F)F)cc1)c1ccccc12 (centres unmarked) [Compound I-203, 1-((4-(difluoromethyl)phenyl)sulfonyl)-N-((tetrahydrofuran-2-yl)methyl)spiro[indoline-3,4′-piperidine]-1′-carboxamide]
19 | ≥ 5.01 | O=C(NC1CCC(F)(F)CC1)N1CCC2(CC1)CN(S(=O)(=O)c1ccc(C(F)F)cc1)c1ccccc12 [Compound I-218, N-(4,4-difluorocyclohexyl)-1-((4-(difluoromethyl)phenyl)sulfonyl)spiro[indoline-3,4′-piperidine]-1′-carboxamide]
20 | ≥ 5.01 | O=C(NCc1cccnc1)C1CCC2(CC1)CN(S(=O)(=O)c1ccc(C(F)F)cc1)c1ccccc12 (centres unmarked) [Compound I-232, 1′-((4-(difluoromethyl)phenyl)sulfonyl)-N-(pyridin-3-ylmethyl)spiro[cyclohexane-1,3′-indoline]-4-carboxamide]
21 | ≥ 5.01 | O=C(NC1CC1)N1CCC2(CC1)CN(S(=O)(=O)c1ccc(C(F)F)cc1)c1ccccc12 [Compound I-142, N-cyclopropyl-1-[4-(difluoromethyl)benzenesulfonyl]-1,2-dihydrospiro[indole-3,4′-piperidine]-1′-carboxamide]
22 | ≥ 5.01 | COc1ccc(NC(=O)N2CCC3(CC2)CN(S(=O)(=O)c2ccc(C(F)F)cc2)c2ccccc23)cn1 [Compound I-216, 1-((4-(difluoromethyl)phenyl)sulfonyl)-N-(6-methoxypyridin-3-yl)spiro[indoline-3,4′-piperidine]-1′-carboxamide]
23 | ≥ 5.01 | Cc1cc(CNC(=O)N2CCC3(CC2)CN(S(=O)(=O)c2ccc(C(F)F)cc2)c2ccccc23)no1 [Compound I-211, 1-((4-(difluoromethyl)phenyl)sulfonyl)-N-((5-methylisoxazol-3-yl)methyl)spiro[indoline-3,4′-piperidine]-1′-carboxamide]
